Results reported in patent US11970511B2, “Tetrahydropyran-based thiodisaccharide mimics as Galectin-3 inhibitors” (BRISTOL-MYERS SQUIBB COMPANY, priority 2018, dated 2024).

Molecular target: His-tagged recombinant human Gal-3 (hGal-3) (Homo sapiens, UniProt P17931)
Experiment: Gal-3 HTRF assay: His-tagged hGal-3 binding to B-ASF, Anti-His terbium antibody / Streptavidin d2 detection;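 also: compound preincubated 30 min with hGal-3, then 1 h with B-ASF, DMSO wells with B-ASF serving as positive control and those lacking B-ASF as negative control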
Settings: 15 nM hGal-3, 15 nM B-ASF, three replicates, room temperature

His-tagged recombinant human Gal-3 (hGal-3), sequence (P17931 whole entry): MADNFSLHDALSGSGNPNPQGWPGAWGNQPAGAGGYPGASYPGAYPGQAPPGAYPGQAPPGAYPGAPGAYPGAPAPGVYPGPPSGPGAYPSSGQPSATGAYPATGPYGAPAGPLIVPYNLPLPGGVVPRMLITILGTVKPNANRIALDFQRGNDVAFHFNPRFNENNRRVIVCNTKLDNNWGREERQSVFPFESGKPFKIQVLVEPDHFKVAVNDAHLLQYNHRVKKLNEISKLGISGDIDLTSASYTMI

COc1ncc(-c2cn(C3COCC(SC4OC(CO)C(O)C(n5cc(-c6cc(F)c(F)c(F)c6)nn5)C4OCC(=O)N4CC(C)OC(C)C4)C3O)nn2)cn1 (single isomer, unassigned) [Example 32]
IC50: 19 nM

COc1cnc(-c2cn([C@H]3COC[C@@H](S[C@@H]4O[C@H](CO)[C@H](O)[C@H](n5cc(-c6cc(F)c(F)c(F)c6)nn5)[C@H]4OC)[C@@H]3O)nn2)nc1N [Example 21, (2R,3R,4S,5R,6S)-6-(((3R,4R,5S)-5-(4-(4-amino-5-methoxypyrimidin-2-yl)-1H-1,2,3-triazol-1-yl)-4-hydroxytetrahydro-2H-pyran-3-yl)thio)-2-(hydroxymethyl)-5-methoxy-4-(4-(3,4,5-trifluorophenyl)-1H-1,2,3-triazol-1-yl)tetrahydro-2H-pyran-3-ol]
IC50: 23 nM

O=C(O)COC1C(SC2COCC(n3cc(-c4cncnc4)nn3)C2O)OC(CO)C(O)C1n1cc(-c2cc(F)c(F)c(F)c2)nn1 [Example 26, 2-(((2S,3R,4S,5R,6R)-5-hydroxy-2-(((3R,4R,5S)-4-hydroxy-5-(4-(pyrimidin-5-yl)-1H-1,2,3-triazol-1-yl)tetrahydro-2H-pyran-3-yl)thio)-6-(hydroxymethyl)-4-(4-(3,4,5-trifluorophenyl)-1H-1,2,3-triazol-1-yl)tetranydro-2H-pyran-3-yl)oxy)acetic acid]
IC50: 15 nM

COC(=O)COC1C(SC2COCC(n3cc(-c4cncnc4)nn3)C2O)OC(CO)C(O)C1n1cc(-c2cc(F)c(F)c(F)c2)nn1 [Example 27, methyl 2-(((2S,3R,4S,5R,6R)-5-hydroxy-2-(((3R,4R,5S)-4-hydroxy-5-(4-(pyriin-5-yl)-1H-1,2,3-triazol-1-yl)tetrahydro-2H-pyran-3-yl)thio)-6-(hydroxymethyl)-4-(4-(3,4,5-trifluorophenyl)-1H-1,2,3-triazol-1-yl)tetrahydro-2H-pyran-3-yl)oxy)acetate]
IC50: 17 nM

O=C(CO[C@@H]1[C@@H](n2cc(-c3cc(F)c(F)c(F)c3)nn2)[C@@H](O)[C@@H](CO)O[C@H]1S[C@@H]1COC[C@H](n2cc(-c3cncnc3)nn2)[C@H]1O)N1CCOCC1 [Example 28, 2-(((2S,3R,4S,5R,6R)-5-hydroxy-2-(((3R,4R,5S)-4-hydroxy-5-(4-(pyrimidin-5-yl)-1H-1,2,3-triazol-1-yl)tetrahydro-2H-pyran-3-yl)thio)-6-(hydroxymethyl)-4-(4-(3,4,5-trifluorophenyl)-1H-1,2,3-triazol-1-yl)tetrahydro-2H-pyran-3-yl)oxy)-1-morpholinoethan-1-one]
IC50: 10 nM

CN(C(=O)COC1C(SC2COCC(n3cc(-c4cncnc4)nn3)C2O)OC(CO)C(O)C1n1cc(-c2cc(F)c(F)c(F)c2)nn1)c1ccccc1 [Example 29, 2-(((2S,3R,4S,5R,6R)-5-hydroxy-2-(((3R,4R,5S)-4-hydroxy-5-(4-(pyrimidin-5-yl)-1H-1,2,3-triazol-1-yl)tetrahydro-2H-pyran-3-yl)thio)-6-(hydroxymethy)-4-(4-(3,4,5-trifluorophenyl)-1H-1,2,3-triazol-1-yl)-2H-pyran-3-yl)oxy)-N-methyl-N-phenylacetamide]
IC50: 25 nM

COc1ncc(-c2cn([C@H]3COC[C@@H](S[C@@H]4O[C@H](CO)[C@H](O)[C@H](n5cc(-c6cc(F)c(F)c(F)c6)nn5)[C@H]4OCC(=O)O)[C@@H]3O)nn2)cn1 [Example 30, 2-(((2S,3R,4S,5R,6R)-5-hydroxy-2-(((3R,4R,5S)-4-hydroxy-5-(4-(2-methoxypyrimidin-5-yl)-1H-1,2,3-triazol-1-yl)tetrahydro-2H-pyran-3-yl)thio)-6-(hydroxymethyl)-4-(4-(3,4,5-trifluorophenyl)-1H-1,2,3-triazol-1-yl)tetrahydro-2H-pyran-3-yl)oxy)acetic acid]
IC50: 8 nM
